Assay results published in the NIST ThermoML archive (doi:10.1021/acs.jced.6b00526).

Test: refractive index (Na D-line) (dimensionless); xn = mol fraction of the nth substance listed
Conditions: 100 kPa, Liquid, Standard Abbe refractometry

OCCO [1,2-ethanediol] + O
refractive index
Conditions | x2 = 0 | x2 = 0.1593 | x2 = 0.2669 | x2 = 0.3496 | x2 = 0.4449 | x2 = 0.5563 | x2 = 0.6518 | x2 = 0.7482 | x2 = 0.8444
288.15 K | 1.432 | 1.4278 | 1.4239 | 1.4202 | 1.4152 | 1.408 | 1.3996 | 1.3881 | 1.3724
293.15 K | 1.4306 | 1.4263 | 1.4225 | 1.4188 | 1.4138 | 1.4067 | 1.3984 | 1.387 | 1.3714
298.15 K | 1.4294 | 1.4251 | 1.4212 | 1.4176 | 1.4126 | 1.4055 | 1.3973 | 1.386 | 1.3705
303.15 K | 1.4282 | 1.4239 | 1.42 | 1.4163 | 1.4114 | 1.4043 | 1.3961 | 1.3849 | 1.3696
308.15 K | 1.4269 | 1.4225 | 1.4187 | 1.415 | 1.4102 | 1.4031 | 1.3949 | 1.3838 | 1.3687
313.15 K | 1.4257 | 1.4213 | 1.4174 | 1.4138 | 1.409 | 1.4019 | 1.3938 | 1.3827 | 1.3677
318.15 K | 1.4244 | 1.42 | 1.4161 | 1.4125 | 1.4077 | 1.4006 | 1.3926 | 1.3816 | 1.3668

OCCCCO [1,4-butanediol] + O
refractive index
Conditions | x2 = 0 | x2 = 0.152 | x2 = 0.2513 | x2 = 0.3534 | x2 = 0.4482 | x2 = 0.5515 | x2 = 0.6527 | x2 = 0.7501 | x2 = 0.8492 | x2 = 0.9488
288.15 K | 1.447 | 1.4441 | 1.4413 | 1.4376 | 1.4332 | 1.4277 | 1.4203 | 1.4097 | 1.3913 | 1.3596
293.15 K | 1.4455 | 1.4425 | 1.4397 | 1.436 | 1.4317 | 1.4262 | 1.4188 | 1.4082 | 1.39 | 1.3586
298.15 K | 1.4441 | 1.4411 | 1.4383 | 1.4346 | 1.4304 | 1.4247 | 1.4174 | 1.4069 | 1.3888 | 1.3577
303.15 K | 1.4426 | 1.4395 | 1.4368 | 1.4331 | 1.4289 | 1.4232 | 1.416 | 1.4056 | 1.3876 | 1.3569
308.15 K | 1.4412 | 1.4381 | 1.4353 | 1.4316 | 1.4274 | 1.4219 | 1.4147 | 1.4044 | 1.3865 | 1.356
313.15 K | 1.4398 | 1.4367 | 1.4339 | 1.4302 | 1.426 | 1.4205 | 1.4134 | 1.4031 | 1.3853 | 1.3552
318.15 K | 1.4384 | 1.4352 | 1.4324 | 1.4288 | 1.4246 | 1.4191 | 1.412 | 1.4018 | 1.3842 | 1.3543

OCCCCCO [1,5-pentanediol] + O
refractive index
Conditions | x2 = 0 | x2 = 0.1235 | x2 = 0.2586 | x2 = 0.3455 | x2 = 0.4864 | x2 = 0.5755 | x2 = 0.6777 | x2 = 0.7611 | x2 = 0.8474 | x2 = 0.9205
288.15 K | 1.4503 | 1.4493 | 1.4477 | 1.4463 | 1.4425 | 1.4401 | 1.4342 | 1.4253 | 1.4085 | 1.3851
293.15 K | 1.449 | 1.4477 | 1.4462 | 1.4447 | 1.4411 | 1.4386 | 1.4328 | 1.4239 | 1.4073 | 1.384
298.15 K | 1.4478 | 1.4464 | 1.4447 | 1.4432 | 1.4396 | 1.4371 | 1.4315 | 1.4225 | 1.406 | 1.3828
303.15 K | 1.4466 | 1.4448 | 1.4431 | 1.4416 | 1.438 | 1.4355 | 1.43 | 1.4211 | 1.4048 | 1.3816
308.15 K | 1.4454 | 1.4434 | 1.4416 | 1.4402 | 1.4367 | 1.4341 | 1.4286 | 1.4197 | 1.4035 | 1.3804
313.15 K | 1.4441 | 1.4419 | 1.44 | 1.4386 | 1.4352 | 1.4326 | 1.4271 | 1.4183 | 1.4022 | 1.3793
318.15 K | 1.443 | 1.4408 | 1.4386 | 1.4373 | 1.434 | 1.4313 | 1.4259 | 1.4171 | 1.401 | 1.3781

OCCCO [propan-1,3-diol] + O
refractive index
Conditions | x2 = 0 | x2 = 0.1737 | x2 = 0.2519 | x2 = 0.3669 | x2 = 0.4553 | x2 = 0.5501 | x2 = 0.6509 | x2 = 0.7532 | x2 = 0.8508
288.15 K | 1.4407 | 1.4361 | 1.4335 | 1.429 | 1.4248 | 1.419 | 1.4107 | 1.3985 | 1.381
293.15 K | 1.4393 | 1.4347 | 1.4321 | 1.4276 | 1.4234 | 1.4177 | 1.4095 | 1.3973 | 1.38
298.15 K | 1.438 | 1.4334 | 1.4308 | 1.4263 | 1.4221 | 1.4165 | 1.4083 | 1.3962 | 1.379
303.15 K | 1.4367 | 1.432 | 1.4295 | 1.425 | 1.4208 | 1.4152 | 1.4071 | 1.3951 | 1.378
308.15 K | 1.4353 | 1.4306 | 1.4281 | 1.4236 | 1.4194 | 1.4139 | 1.4059 | 1.3939 | 1.3771
313.15 K | 1.434 | 1.4294 | 1.4268 | 1.4223 | 1.4181 | 1.4127 | 1.4047 | 1.3929 | 1.3761
318.15 K | 1.4327 | 1.4281 | 1.4255 | 1.421 | 1.4169 | 1.4115 | 1.4036 | 1.3918 | 1.3752
